Assay results from patent US5840684A, “Glycopeptide antibiotic derivatives” (Eli Lilly and Company, priority 1995, dated 1998).
Converted amounts (≈) assume the structure as drawn. “And” between values parts separate entries of the source, which are not always exact repeats. Equal entries are not always repeated.

Legend:
Streptococcus pyogenes = test: mouse protection, experimentally-induced infection; assay type: in vivo; conditions: mice infected with Streptococcus pyogenes, two doses
Streptococcus pneumoniae = test: mouse protection, experimentally-induced infection; assay type: in vivo; conditions: mice infected with Streptococcus pneumoniae, two doses
[1] = tested on: vancomycin-resistant enterococci; test: broth micro-dilution, mean geometric MIC; assay type: cell-based, Enterococcus faecium and Enterococcus faecalis; conditions: enterococci, 24-hour incubation
[2] = tested on: vancomycin-susceptible enterococci; test: broth micro-dilution, mean geometric MIC; assay type: cell-based, Enterococcus faecium and Enterococcus faecalis; conditions: enterococci, 24-hour incubation
[3] = tested on: Staphylococcus aureus SA1199B; assay type: cell-based
Experimental: (§1) The MIC's were determined using a standard broth micro-dilution assay.

[4] = tested on: Entercoccus faecium 180-1; test: broth micro-dilution MIC; assay type: cell-based
Experimental: as §1

[5] = tested on: Staphylococcus aureus 446; test: broth micro-dilution MIC; assay type: cell-based
Experimental: as §1

[6] = tested on: Streptococcus pyogenes C203; test: broth micro-dilution MIC; assay type: cell-based
Experimental: as §1

Entercoccus faecium 180 = test: broth micro-dilution MIC; assay type: cell-based; conditions: Entercoccus faecium 180
Experimental: (§2) The formula I compounds have in vitro and in vivo activity against Gram-positive pathogenic bacteria. The MIC's were determined using a standard broth micro-dilution assay.

Entercoccus faecium 2041 = test: broth micro-dilution MIC; assay type: cell-based; conditions: Entercoccus faecium 2041
Experimental: as §2

[7] = tested on: Enterococcus gallinarum 245; test: broth micro-dilution MIC; assay type: cell-based; conditions: Enterococcus gallinarum 245
Experimental: as §2

[8] = tested on: Staphylococcus epidermidis 270; test: broth micro-dilution MIC; assay type: cell-based
Experimental: as §2

[9] = tested on: Staphylococcus haemolyticus 105; test: broth micro-dilution MIC; assay type: cell-based
Experimental: as §2

[10] = tested on: Staphylococcus haemolyticus 415; test: broth micro-dilution MIC; assay type: cell-based
Experimental: as §2

[11] = tested on: Streptococcus pneumoniae P1; test: broth micro-dilution MIC; assay type: cell-based
Experimental: as §2

[12] = tested on: Staphylococcus aureus S13E; assay type: cell-based
Experimental: as §1

Entercoccus faecium 276 = test: broth micro-dilution MIC; assay type: cell-based
Experimental: as §1

[13] = tested on: Staphylococcus aureus 447; test: broth micro-dilution MIC; assay type: cell-based
Experimental: as §1

[14] = tested on: Staphylococcus aureus 489; test: broth micro-dilution MIC; assay type: cell-based
Experimental: as §1

[15] = tested on: Staphylococcus aureus 491; test: broth micro-dilution MIC; assay type: cell-based
Experimental: as §1

[16] = tested on: Staphylococcus aureus SA1199A; test: broth micro-dilution MIC; assay type: cell-based
Experimental: as §1

[17] = tested on: Staphylococcus aureus SA1199; test: broth micro-dilution MIC; assay type: cell-based
Experimental: as §1

[18] = tested on: Staphylococcus aureus X400; test: broth micro-dilution MIC; assay type: cell-based
Experimental: as §1

[19] = tested on: Staphylococcus aureus X778; test: broth micro-dilution MIC; assay type: cell-based
Experimental: as §1

Escherichia coli EC14 = test: broth micro-dilution MIC; assay type: cell-based
Experimental: as §2

[20] = tested on: Haemophilus influenzae RD; test: broth micro-dilution MIC; assay type: cell-based; conditions: Haemophilus influenzae RD
Experimental: as §2

SMILES | mean geometric MIC, Vancomycin Resistant Strains [1] [mg/L] | mean geometric MIC, Vancomycin Sensitive Strains [2] [mg/L] | MIC [3] [mg/L] | MIC [4] [mg/L] | MIC [5] [mg/L] | MIC [6] [mg/L] | MIC (Entercoccus faecium 180) [mg/L] | MIC (Entercoccus faecium 2041) [mg/L] | MIC [7] [mg/L] | MIC [8] | MIC [9] [mg/L] | MIC [10] | MIC [11] [mg/L] | MIC [12] [mg/L] | MIC (Entercoccus faecium 276) [mg/L] | MIC [13] [mg/L] | MIC [14] [mg/L] | MIC [15] [mg/L] | MIC [16] [mg/L] | MIC [17] [mg/L] | other results
CNC(CC(C)C)C(=O)NC1C(=O)NC(CC(N)=O)C(=O)NC2C(=O)NC3C(=O)NC(C(=O)NC(C(=O)O)c4cc(O)cc(O)c4-c4cc3ccc4O)C(OC3CC(C)(N)C(O)C(C)O3)c3ccc(c(Cl)c3)Oc3cc2cc(c3OC2OC(CO)C(O)C(O)C2OC2CC(C)(NCc3ccc(C(c4ccccc4)c4ccccc4)cc3)C(O)C(C)O2)Oc2ccc(cc2Cl)C1O (stereo not shown) [Compound 46] | 0.71 | 0.50 | – | – | – | – | – | – | – | – | – | – | – | – | – | – | – | – | – | – | ED50 (Streptococcus pyogenes): 0.378 mg/kg/2; ED50 (Streptococcus pneumoniae): 0.156 mg/kg/2
CNC(CC(C)C)C(=O)NC1C(=O)NC(CC(N)=O)C(=O)NC2C(=O)NC3C(=O)NC(C(=O)NC(C(=O)O)c4cc(O)cc(O)c4-c4cc3ccc4O)C(OC3CC(C)(N)C(O)C(C)O3)c3ccc(c(Cl)c3)Oc3cc2cc(c3OC2OC(CO)C(O)C(O)C2OC2CC(C)(NCc3ccc(CCc4ccccc4)cc3)C(O)C(C)O2)Oc2ccc(cc2Cl)C1O (stereo not shown) [Compound 100] | 0.71 | 0.042 | 0.5 (≈ 0.28 µM) | ≤ 0.06 | 1 (≈ 0.56 µM) | ≤ 0.06 | 0.25 (≈ 0.14 µM) | ≤ 0.06 | 2 (≈ 1.12 µM) | 0.5 mg/L and 0.25 mg/L | 1 (≈ 0.56 µM) | 2 mg/L and 4 mg/L | ≤ 0.06 | – | – | – | – | – | – | – | ED50 (Streptococcus pyogenes): 0.062 mg/kg/2; ED50 (Streptococcus pneumoniae): 0.046 mg/kg/2
CC(C)CC(C(=O)NC1C(=O)NC(CC(N)=O)C(=O)NC2C(=O)NC3C(=O)NC(C(=O)NC(C(=O)O)c4cc(O)cc(O)c4-c4cc3ccc4O)C(OC3CC(C)(N)C(O)C(C)O3)c3ccc(c(Cl)c3)Oc3cc2cc(c3OC2OC(CO)C(O)C(O)C2OC2CC(C)(NCc3ccc4ccccc4n3)C(O)C(C)O2)Oc2ccc(cc2Cl)C1O)N(C)Cc1ccc2ccccc2n1 (stereo not shown) [Compound 285] | 90 | 2.4 | 1 (≈ 0.533 µM) | 0.25 (≈ 0.133 µM) | 4 (≈ 2.13 µM) | ≤ 0.06 | 16 (≈ 8.53 µM) | 0.5 (≈ 0.267 µM) | 16 (≈ 8.53 µM) | 8 mg/L (≈ 4.27 µM) | 16 (≈ 8.53 µM) | 16 mg/L (≈ 8.53 µM) | ≤ 0.06 | 1 (≈ 0.533 µM) | 0.5 (≈ 0.267 µM) | 32 (≈ 17.1 µM) | 1 (≈ 0.533 µM) | 4 (≈ 2.13 µM) | 0.25 (≈ 0.133 µM) | 2 (≈ 1.07 µM) | MIC [18]: 4 mg/L (≈ 2.13 µM); MIC [19]: 1 mg/L (≈ 0.533 µM); MIC (Escherichia coli EC14): > 64 mg/L; MIC [20]: > 64 mg/L
CC(C)CC(C(=O)NC1C(=O)NC(CC(N)=O)C(=O)NC2C(=O)NC3C(=O)NC(C(=O)NC(C(=O)O)c4cc(O)cc(O)c4-c4cc3ccc4O)C(OC3CC(C)(NCc4cccc5c([N+](=O)[O-])cccc45)C(O)C(C)O3)c3ccc(c(Cl)c3)Oc3cc2cc(c3OC2OC(CO)C(O)C(O)C2OC2CC(C)(N)C(O)C(C)O2)Oc2ccc(cc2Cl)C1O)N(C)Cc1cccc2c([N+](=O)[O-])cccc12 (stereo not shown) [Compound 286] | 19 | 1.1 | 4 (≈ 2.04 µM) | 0.25 (≈ 0.127 µM) | 1 (≈ 0.509 µM) | ≤ 0.06 | 8 (≈ 4.08 µM) | 1 (≈ 0.509 µM) | 4 (≈ 2.04 µM) | 4 mg/L (≈ 2.04 µM) | 8 (≈ 4.08 µM) | 4 mg/L (≈ 2.04 µM) | ≤ 0.06 | 4 (≈ 2.04 µM) | 1 (≈ 0.509 µM) | 8 (≈ 4.08 µM) | 2 (≈ 1.02 µM) | 2 (≈ 1.02 µM) | ≤ 0.06 | 2 (≈ 1.02 µM) | MIC [18]: 2 mg/L (≈ 1.02 µM); MIC [19]: 4 mg/L (≈ 2.04 µM); MIC (Escherichia coli EC14): > 64 mg/L; MIC [20]: > 64 mg/L
CC(C)CC(C(=O)NC1C(=O)NC(CC(N)=O)C(=O)NC2C(=O)NC3C(=O)NC(C(=O)NC(C(=O)O)c4cc(O)cc(O)c4-c4cc3ccc4O)C(OC3CC(C)(N)C(O)C(C)O3)c3ccc(c(Cl)c3)Oc3cc2cc(c3OC2OC(CO)C(O)C(O)C2OC2CC(C)(NCC3CC=CCC3)C(O)C(C)O2)Oc2ccc(cc2Cl)C1O)N(C)CC1CC=CCC1 (stereo not shown) [Compound 287] | 45 | 1.1 | 0.25 (≈ 0.14 µM) | 0.125 (≈ 0.0702 µM) | 1 (≈ 0.562 µM) | ≤ 0.06 | 16 (≈ 8.98 µM) | 0.125 (≈ 0.0702 µM) | 0.5 (≈ 0.281 µM) | 4 mg/L (≈ 2.25 µM) | 8 (≈ 4.49 µM) | 16 mg/L (≈ 8.98 µM) | ≤ 0.06 | 1 (≈ 0.562 µM) | 0.25 (≈ 0.14 µM) | 4 (≈ 2.25 µM) | 0.5 (≈ 0.281 µM) | 1 (≈ 0.562 µM) | ≤ 0.06 | 0.5 (≈ 0.281 µM) | MIC [18]: 0.5 mg/L (≈ 0.281 µM); MIC [19]: 0.5 mg/L (≈ 0.281 µM); MIC (Escherichia coli EC14): > 64 mg/L; MIC [20]: > 64 mg/L
CNC(CC(C)C)C(=O)NC1C(=O)NC(CC(N)=O)C(=O)NC2C(=O)NC3C(=O)NC(C(=O)NC(C(=O)O)c4cc(O)cc(O)c4-c4cc3ccc4O)C(OC3CC(C)(NCc4ccc(OCCOC(C)(C)C)cc4)C(O)C(C)O3)c3ccc(c(Cl)c3)Oc3cc2cc(c3OC2OC(CO)C(O)C(O)C2OC2CC(C)(NCc3ccc(OCCOC(C)(C)C)cc3)C(O)C(C)O2)Oc2ccc(cc2Cl)C1O (stereo not shown) [Compound 288] | 11 | 1.7 | 1 (≈ 0.499 µM) | 1 (≈ 0.499 µM) | 2 (≈ 0.997 µM) | ≤ 0.06 | 4 (≈ 1.99 µM) | 1 (≈ 0.499 µM) | 2 (≈ 0.997 µM) | 1 mg/L (≈ 0.499 µM) | 2 (≈ 0.997 µM) | 4 mg/L (≈ 1.99 µM) | ≤ 0.06 | 2 (≈ 0.997 µM) | 2 (≈ 0.997 µM) | 2 (≈ 0.997 µM) | 2 (≈ 0.997 µM) | 2 (≈ 0.997 µM) | 1 (≈ 0.499 µM) | 2 (≈ 0.997 µM) | MIC [18]: 2 mg/L (≈ 0.997 µM); MIC [19]: 2 mg/L (≈ 0.997 µM); MIC (Escherichia coli EC14): > 64 mg/L; MIC [20]: > 64 mg/L
